According to PubChem BioAssay (NCI):
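Dose response: 5 concentrations. Exposure: 48 h. Format: 96-well plates. Endpoint: linear interpolation; highest concentration if not reached. The concentration for full growth arrest is given as TGI.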

Legend:
Assay in all cases: DTP human tumour cell line panel, 48 h
[1] = tested on: 786-0 renal
[2] = tested on: A549 NSCLC
[3] = tested on: ACHN renal
[4] = tested on: CAKI-1 renal
[5] = tested on: CCRF-CEM leukemia
[6] = tested on: COLO 205 colon
[7] = tested on: DLD-1 colon
[8] = tested on: DMS 273 small cell lung
[9] = tested on: EKVX NSCLC
[10] = tested on: HCC-2998 colon
[11] = tested on: HCT-116 colon
[12] = tested on: HCT-15 colon
[13] = tested on: HL-60(TB) leukemia
[14] = tested on: HOP-18 NSCLC
[15] = tested on: HOP-62 NSCLC
[16] = tested on: HOP-92 NSCLC
[17] = tested on: HT29 colon
[18] = tested on: IGROV1 ovarian
[19] = tested on: K-562 leukemia
[20] = tested on: KM12 colon
[21] = tested on: KM20L2 colon
[22] = tested on: LOX IMVI melanoma
[23] = tested on: LXFL 529 NSCLC
[24] = tested on: M14 melanoma
[25] = tested on: M19-MEL melanoma
[26] = tested on: MALME-3M melanoma
[27] = tested on: MOLT-4 leukemia
[28] = tested on: NCI-H226 lung
[29] = tested on: NCI-H23 lung
[30] = tested on: NCI-H460 lung
[31] = tested on: NCI-H522 lung
[32] = tested on: OVCAR-3 ovarian
[33] = tested on: OVCAR-4 ovarian
[34] = tested on: OVCAR-5 ovarian
[35] = tested on: OVCAR-8 ovarian
[36] = tested on: RXF 393 renal
[37] = tested on: RXF-631 renal
[38] = tested on: SF-268 CNS
[39] = tested on: SF-295 CNS
[40] = tested on: SF-539 CNS
[41] = tested on: SK-MEL-2 melanoma
[42] = tested on: SK-MEL-28 melanoma
[43] = tested on: SK-MEL-5 melanoma
[44] = tested on: SK-OV-3 ovarian
[45] = tested on: SN12C renal
[46] = tested on: SNB-19 CNS
[47] = tested on: SNB-75 CNS
[48] = tested on: SNB-78 CNS
[49] = tested on: SR leukemia
[50] = tested on: SW-620 colon
[51] = tested on: TK-10 renal
[52] = tested on: U251 CNS
[53] = tested on: UACC-257 melanoma
[54] = tested on: UACC-62 melanoma
[55] = tested on: UO-31 renal
[56] = tested on: XF 498 CNS
[57] = tested on: A498 renal
[58] = tested on: DMS 114 small cell lung
[59] = tested on: RPMI-8226 leukemia

CCOc1ccccc1NC(=O)CC1Sc2ccccc2NC1=O (stereo not drawn)
TGI [1]: > 100 µM | TGI [2]: > 100 µM | TGI [3]: > 100 µM | TGI [4]: > 100 µM | TGI [5]: > 100 µM | TGI [6]: > 100 µM | TGI [7]: > 100 µM | TGI [8]: > 100 µM | TGI [9]: > 100 µM | TGI [10]: > 100 µM | TGI [11]: > 100 µM | TGI [12]: > 100 µM | TGI [13]: 67.9 µM | TGI [14]: > 100 µM | TGI [15]: > 100 µM | TGI [16]: 76.8 µM | TGI [17]: > 100 µM | TGI [18]: > 100 µM | TGI [19]: > 100 µM | TGI [20]: > 100 µM | TGI [21]: > 100 µM | TGI [22]: > 100 µM | TGI [23]: > 100 µM | TGI [24]: > 100 µM | TGI [25]: > 100 µM | TGI [26]: > 100 µM | TGI [27]: > 100 µM | TGI [28]: > 100 µM | TGI [29]: > 100 µM | TGI [30]: > 100 µM | TGI [31]: 73.7 µM | TGI [32]: > 100 µM | TGI [33]: > 100 µM | TGI [34]: > 100 µM | TGI [35]: > 100 µM | TGI [36]: > 100 µM | TGI [37]: > 100 µM | TGI [38]: > 100 µM | TGI [39]: > 100 µM | TGI [40]: > 100 µM | TGI [41]: > 100 µM | TGI [42]: > 100 µM | TGI [43]: 86.6 µM | TGI [44]: > 100 µM | TGI [45]: > 100 µM | TGI [46]: > 100 µM | TGI [47]: > 100 µM | TGI [48]: > 100 µM | TGI [49]: 75.7 µM | TGI [50]: > 100 µM | TGI [51]: > 100 µM | TGI [52]: > 100 µM | TGI [53]: > 100 µM | TGI [54]: > 100 µM | TGI [55]: > 100 µM | TGI [56]: > 100 µM

O=C(O)CC(O)(c1ccccc1C(=O)O)c1cccc2ccccc12 (stereo not drawn)
TGI [1]: > 100 µM | TGI [57]: > 100 µM | TGI [2]: > 100 µM | TGI [3]: > 100 µM | TGI [4]: > 100 µM | TGI [5]: > 100 µM | TGI [6]: > 100 µM | TGI [7]: > 100 µM | TGI [58]: > 100 µM | TGI [8]: > 100 µM | TGI [9]: > 100 µM | TGI [11]: > 100 µM | TGI [12]: > 100 µM | TGI [13]: > 100 µM | TGI [14]: > 100 µM | TGI [15]: > 100 µM | TGI [16]: > 100 µM | TGI [17]: > 100 µM | TGI [18]: > 100 µM | TGI [19]: > 100 µM | TGI [20]: > 100 µM | TGI [22]: > 100 µM | TGI [23]: > 100 µM | TGI [24]: > 100 µM | TGI [25]: > 100 µM | TGI [26]: > 100 µM | TGI [27]: > 100 µM | TGI [28]: > 100 µM | TGI [29]: > 100 µM | TGI [30]: > 100 µM | TGI [31]: > 100 µM | TGI [32]: > 100 µM | TGI [33]: > 100 µM | TGI [34]: > 100 µM | TGI [35]: > 100 µM | TGI [59]: > 100 µM | TGI [36]: > 100 µM | TGI [37]: > 100 µM | TGI [38]: > 100 µM | TGI [39]: > 100 µM | TGI [40]: > 100 µM | TGI [41]: > 100 µM | TGI [42]: > 100 µM | TGI [43]: > 100 µM | TGI [44]: > 100 µM | TGI [45]: > 100 µM | TGI [46]: > 100 µM | TGI [47]: > 100 µM | TGI [48]: > 100 µM | TGI [49]: > 100 µM | TGI [50]: > 100 µM | TGI [51]: > 100 µM | TGI [52]: > 100 µM | TGI [53]: > 100 µM | TGI [54]: > 100 µM | TGI [55]: > 100 µM | TGI [56]: > 100 µM
